One block for each compound: values may come before it.
Key:
TNFα = assay: LPS stimulated TNFα in differentiated U937 cells (hPBMC), ELISA; format: cell-based; conditions: Homo sapiens, U-937; LPS 0.1 μg/mL, 4 hours
Experimental: (§1) Therefore, inhibition of the p38 MAP Kinase pathway will lower the inflammatory response by decreasing biosynthesis of pro-inflammatory cytokines. […] The U937 human pre-monocytic cell line was obtained from the American Type Culture Collection (Rockville, MD). These cells were differentiated to a monocytic/macrophage phenotype as described by Burnette (Burnette et al, (2009). […] Differentiated U937 cells (human peripheral blood mononuclear cells (hPBMC)) were seeded into 96-well tissue culture plates (200,000 cells/well) in complete media. […] Culture media was then collected for determination of TNFα, IL-6 or IL-10 levels by ELISA. Cytokine concentrations were extrapolated from recombinant protein standard curves using a four-parameter logistic model and solving for IC50 after iterating to the best least-squares fit.

IL-1β = assay: LPS stimulated IL-1β in differentiated U937 cells (hPBMC), ELISA; format: cell-based; conditions: Homo sapiens, U-937; LPS 0.1 μg/mL, 4 hours
IL-6 = assay: LPS stimulated IL-6 in differentiated U937 cells (hPBMC), ELISA; format: cell-based; conditions: Homo sapiens, U-937; LPS 0.1 μg/mL, 4 hours
Experimental: as §1

[1] = Crystal form screen of Compound (P)-I; format: physicochemical; conditions: for Crystal form obtained, EV: evaporation; for Crystal form obtained, RC: rapid cooling 40 to −20° C.; for Crystal form obtained, TC: temperature-cycled slurry 5-40° C.
Experimental: Water-containing solvents with a variety of water activities (aw)^1 were also included to probe for the formation of hydrates. Temperatures ranging between 40° C. to −20° C.
The screening studies were comprised of the following crystallization modes: • Temperature-cycled ripening of API slurries between 5-40° C. for four days (TC) • Rapid cooling clarified saturated solutions from 40 to −20° C. and holding at −20° C. for three days (RC) • Slow evaporation of clarified solutions at RT over 14 days.

[2] = MTX 7.5 mg single oral dose alone, fasted
[3] = 2-Methoxyethanol:Isopropyl ether (20:80)
[4] = 2-propanol:Water (90:10), water activity 0.65
[5] = 2-propanol:Water (95:5), water activity 0.55
[6] = Acetone:Water (20:80), water activity 0.96
[7] = Acetone:Water (80:20), water activity 0.77
[8] = Acetonitrile:Water (90:10), water activity 0.76
[9] = Methanol:Water (90:10), water activity 0.33
[10] = Methanol:Water (95:5), water activity 0.20
[11] = Tetrahydrofuran::Water (20:80), water activity 0.82

SMILES: Cc1cnc(-c2ccnc(C(C)(C)O)n2)cc1-n1c(C)cc(OCc2ncc(F)cc2F)c(Cl)c1=O (atropisomer, axis not shown; (M)) [(M)-I, (M)-3-chloro-4-((3,5-difluoropyridin-2-yl)methoxy)-2′-(2-(2-hydroxypropan-2-yl)pyrimidin-4-yl)-5′,6-dimethyl-2H-[1,4′-bipyridin]-2-one]
IC50 (TNFα): > 10000 µM
IC50 (IL-1β): > 10000 µM
IC50 (IL-6): > 10000 µM

SMILES: Cc1cnc(-c2ccnc(C(C)(C)O)n2)cc1-n1c(C)cc(OCc2ncc(F)cc2F)c(Cl)c1=O (single isomer, unassigned) [(P)-I, (P)-3-chloro-4-((3,5-difluoropyridin-2-yl)methoxy)-2′-(2-(2-hydroxypropan-2-yl)pyrimidin-4-yl)-5′,6-dimethyl-2H-[1,4′-bipyridin]-2-one]
IC50 (TNFα): 0.004 µM
IC50 (IL-1β): 0.012 µM
IC50 (IL-6): 0.145 µM
Crystal form obtained, EV ([1]; 1,4-Dioxane): Form A
Crystal form obtained, EV ([1]; 1,4-Dioxane:Water (90:10), water activity 0.70): Form A
Crystal form obtained, EV ([1]; 1-Propanol): Form A
Crystal form obtained, EV ([1]; 2-Butanone): Form A
Crystal form obtained, EV [1, 3]: Form A
Crystal form obtained, EV ([1]; 2-Propanol): Form A
Crystal form obtained, EV [1, 4]: Form A
Crystal form obtained, EV [1, 5]: Form A
Crystal form obtained, EV ([1]; 4-Methyl-2-pentanone): Form A
Crystal form obtained, EV ([1]; Acetone): Form A
Crystal form obtained, EV [1, 6]: Form A
Crystal form obtained, EV [1, 7]: Form A
Crystal form obtained, EV ([1]; Acetone:Water (90:10), water activity 0.70): Form A
Crystal form obtained, EV ([1]; Acetonitrile): Form A
Crystal form obtained, EV [1, 8]: Form A
Crystal form obtained, EV ([1]; DMSO:t-butyl methyl ether (20:80)): Form A
Crystal form obtained, EV ([1]; Dichloromethane): Form A
Crystal form obtained, EV ([1]; Dimethyl carbonate): Form A
Crystal form obtained, EV ([1]; Ethanol): Form A
Crystal form obtained, EV ([1]; Ethyl acetate): Form A
Crystal form obtained, EV ([1]; Isopropyl acetate): Form A
Crystal form obtained, EV ([1]; Methanol): Form A
Crystal form obtained, EV [1, 9]: Form A
Crystal form obtained, EV [1, 10]: Form A
Crystal form obtained, EV ([1]; Nitromethane): Form A
Crystal form obtained, EV ([1]; Tetrahydrofuran): Form A
Crystal form obtained, EV [1, 11]: Form A
Crystal form obtained, EV ([1]; Tetrahydrofuran:Water (90:10), water activity 0.83): Form A
Crystal form obtained, EV ([1]; Toluene): Form A
Crystal form obtained, RC [1, 4]: Form A
Crystal form obtained, RC [1, 7]: Form A
Crystal form obtained, RC ([1]; Acetonitrile): Form A
Crystal form obtained, RC [1, 9]: Form A
Crystal form obtained, RC ([1]; Nitromethane): Form A
Crystal form obtained, TC ([1]; 1-Butanol): Form A
Crystal form obtained, TC ([1]; 1-Methoxy-2-propanol:Isopropyl ether (20:80)): Form A
Crystal form obtained, TC [1, 3]: Form A
Crystal form obtained, TC ([1]; 2-Methoxyethyl ether:Heptane (20:80)): Form A
Crystal form obtained, TC ([1]; 2-Propanol): Form A
Crystal form obtained, TC [1, 5]: Form A
Crystal form obtained, TC ([1]; 4-Methyl-2-pentanone): Form A
Crystal form obtained, TC ([1]; 4-Methyl-2-pentanone:heptane (20:80)): Form A
Crystal form obtained, TC [1, 6]: Form A
Crystal form obtained, TC ([1]; Acetonitrile): Form A
Crystal form obtained, TC [1, 8]: Form A
Crystal form obtained, TC ([1]; Acetonitrile:Water (95:5), water activity 0.94): Form A
Crystal form obtained, TC ([1]; Acetonitrile:isopropyl ethyl ether (20:80)): Form A
Crystal form obtained, TC ([1]; Chlorobenzene:Cyclohexane (20:80)): Form A
Crystal form obtained, TC ([1]; Cyclohexane): Form A
Crystal form obtained, TC ([1]; Dimethyl carbonate): Form A
Crystal form obtained, TC ([1]; Ethanol:Water (20:80), water activity 0.93): Form A
Crystal form obtained, TC ([1]; Ethyl acetate:cyclohexane (20:80)): Form A
Crystal form obtained, TC ([1]; Heptane): Form A
Crystal form obtained, TC ([1]; Isopropyl acetate): Form A
Crystal form obtained, TC ([1]; Isopropyl ether): Form A
Crystal form obtained, TC [1, 9]: Form A
Crystal form obtained, TC [1, 10]: Form A
Crystal form obtained, TC ([1]; Methyl acetate:Heptane (20:80)): Form A
Crystal form obtained, TC ([1]; N,N-Dimethylformamide:Water (20:80), water activity 0.95): Form A
Crystal form obtained, TC ([1]; Nitromethane): Form A
Crystal form obtained, TC [1, 11]: Form A
Crystal form obtained, TC ([1]; Toluene): Form A
Crystal form obtained, TC ([1]; Trifluoroethanol:Isopropyl ether (20:80)): Form A
Crystal form obtained, TC ([1]; Water, water activity 1.00): Form A
Crystal form obtained, TC ([1]; t-Butyl methyl ether): Form A

AUC0-∞ [2]: 562.2 (102.2) ng · h/mL
Cmax [2]: 163.3 (35.6) ng/mL
Tmax, median (min, max) [2]: 1.0 (0.5, 2.5) h
t1/2 [2]: 3.1 (0.7) h
SMILES: CN(Cc1cnc2nc(N)nc(N)c2n1)c1ccc(C(=O)N[C@@H](CCC(=O)O)C(=O)O)cc1 [MTX, Methotrexate]

— patent US11844801B2, “Oral compositions of MK2 pathway inhibitor for treatment of immune conditions” (priority 2020, dated 2023)
